Data on 2 compounds can be found in patent publication US6667309B2, “Cyclobutene derivatives useful as antagonists of the motilin receptor” (Ortho-McNeil Pharmaceutical, Inc., priority 2000, dated 2003).

The target of the test is T1, motilin receptors located on the colon of mature rabbits (Oryctolagus cuniculus, UniProt G1T803).
T1 construct: The muscle tissues were homogenized in 10 volumes of buffer; from tissue; host or cells: rabbit colon smooth muscle, crude membrane homogenate
The test can be described thus: Competition with radiolabeled motilin (porcine) binding, rabbit colon membranes. Set-up: species or system New Zealand rabbits. Conditions: I125 motilin (porcine), rabbit colon membrane. Here is the method: The compounds of the invention were tested for their ability to compete with radiolabeled motilin (porcine) for the motilin receptors located on the colon of mature rabbits. The colon from mature New Zealand rabbits was removed, dissected free from the mucosa and serosa layers, and diced into small pieces. The muscle tissues were homogenized in 10 volumes of buffer (50 mM Tris-Cl, 10 mM MgCl2, 0.1 mg/mL bactracin, and 0.25 mM Peflabloc, pH 7.5) in a Polytron (29,000 rpm, 4×15 seconds). The homogenate was centrifuged at 1000×g for 15 min. and the supernatant discarded. The pellet was washed twice before being suspended in homogenizing buffer. This crude homogenate was then passed first through a 19 gauge needle then a 23 gauge needle to further suspend the material and stored at −80° C. […] The pellet was counted in the gamma counter to determine the percentage of […] motilin and thereby the percent inhibition of the test compound.
% inhibition was determined for some compounds by standard techniques: […]

T1 sequence (G1T803 1-400): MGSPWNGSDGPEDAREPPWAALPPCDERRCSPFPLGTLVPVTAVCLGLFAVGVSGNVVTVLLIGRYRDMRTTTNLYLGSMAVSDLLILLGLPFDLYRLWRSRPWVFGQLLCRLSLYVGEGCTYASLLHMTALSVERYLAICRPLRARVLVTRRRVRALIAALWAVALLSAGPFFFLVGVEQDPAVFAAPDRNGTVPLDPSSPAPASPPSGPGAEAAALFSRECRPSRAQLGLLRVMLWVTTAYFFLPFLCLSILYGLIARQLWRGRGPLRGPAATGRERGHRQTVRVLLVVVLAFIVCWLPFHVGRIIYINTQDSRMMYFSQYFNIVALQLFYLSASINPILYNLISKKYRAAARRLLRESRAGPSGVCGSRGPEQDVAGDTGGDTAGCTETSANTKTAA

The term % inhibition denotes the percentage by which the read-out fell short of the control. A higher % inhibition goes with a strong effect. Consider `O=C(c1ccc(F)c(F)c1)N(CC1=CC(Cc2ccccc2)(NC(=O)C(Cl)(Cl)Cl)C1)c1cccc(OCCN2CCOCC2)c1` (centres unmarked) [example 6, 3-Benzyl-3-trichloroacetamido-1-[N-(3,4-difluorobenzoyl)]-N-[(3-(2-morpholinoethoxy)phenyl)amino]methylcyclobutene], for which, for the setting “@ 1,000 nM test compound”, the “% inhibition” value is 14%.

In the case of `O=C(c1ccc(Br)cc1)N(CC1=CC(Cc2ccccc2)(NC(=O)C(Cl)(Cl)Cl)C1)c1cccc(OCCN2CCOCC2)c1` (centres unmarked) [example 7, 3-Benzyl-3-trichloroacetamido-1-[N-(4-bromobenzoyl)]-N-[(3-(2-morpholinoethoxy)phenyl)amino]methylcyclobutene], the “% inhibition” value (@ 10,000 nM test compound) worked out at 47%.
